Source: PubChem BioAssay (NCI)
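The concentration for 50% growth inhibition is given as GI50. TGI: concentration producing complete growth inhibition.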

Experiments:
Assay in all cases: inhibition of tumour cell growth, NCI panel, 384-well format
A498 renal = system: A498 renal
A549 NSCLC = system: A549 NSCLC
ACHN renal = system: ACHN renal
BT-549 breast = system: BT-549 breast
CAKI-1 renal = system: CAKI-1 renal
COLO 205 colon = system: COLO 205 colon
DU-145 prostate = system: DU-145 prostate
EKVX NSCLC = system: EKVX NSCLC
HCC-2998 colon = system: HCC-2998 colon
HCT-116 colon = system: HCT-116 colon
HCT-15 colon = system: HCT-15 colon
HL-60(TB) leukemia = system: HL-60(TB) leukemia
HOP-62 NSCLC = system: HOP-62 NSCLC
HOP-92 NSCLC = system: HOP-92 NSCLC
HS 578T breast = system: HS 578T breast
HT29 colon = system: HT29 colon
IGROV1 ovarian = system: IGROV1 ovarian
KM12 colon = system: KM12 colon
LOX IMVI melanoma = system: LOX IMVI melanoma
M14 melanoma = system: M14 melanoma
MALME-3M melanoma = system: MALME-3M melanoma
MCF7 breast = system: MCF7 breast
MDA-MB-231 breast = system: MDA-MB-231 breast
MDA-MB-435 melanoma = system: MDA-MB-435 melanoma
MDA-MB-468 breast = system: MDA-MB-468 breast
MOLT-4 leukemia = system: MOLT-4 leukemia
NCI-H226 lung = system: NCI-H226 lung
NCI-H23 lung = system: NCI-H23 lung
NCI-H322M lung = system: NCI-H322M lung
NCI-H460 NSCLC = system: NCI-H460 NSCLC
NCI-H522 lung = system: NCI-H522 lung
NCI/ADR-RES ovarian = system: NCI/ADR-RES ovarian
OVCAR-3 ovarian = system: OVCAR-3 ovarian
OVCAR-4 ovarian = system: OVCAR-4 ovarian
OVCAR-5 ovarian = system: OVCAR-5 ovarian
OVCAR-8 ovarian = system: OVCAR-8 ovarian
PC-3 prostate = system: PC-3 prostate
RPMI-8226 leukemia = system: RPMI-8226 leukemia
RXF 393 renal = system: RXF 393 renal
SF-268 CNS = system: SF-268 CNS
SF-295 CNS = system: SF-295 CNS
SF-539 CNS = system: SF-539 CNS
SK-MEL-28 melanoma = system: SK-MEL-28 melanoma
SK-MEL-5 melanoma = system: SK-MEL-5 melanoma
SK-OV-3 ovarian = system: SK-OV-3 ovarian
SN12C renal = system: SN12C renal
SNB-19 CNS = system: SNB-19 CNS
SNB-75 CNS = system: SNB-75 CNS
SR leukemia = system: SR leukemia
T-47D breast = system: T-47D breast
TK-10 renal = system: TK-10 renal
U251 glioblastoma = system: U251 glioblastoma
UACC-257 melanoma = system: UACC-257 melanoma
UACC-62 melanoma = system: UACC-62 melanoma

Question: FC(F)(F)c1cc(-c2ncn(/C=C\c3nnco3)n2)cc(C(F)(F)F)c1 was tested. Which GI50 (A498 renal) did it give?
Answer: < 0.01 µM

Question: What about the TGI (A498 renal) of the same molecule?
Answer: 0.0822 µM

Question: And the GI50 (A549 NSCLC)?
Answer: 0.0101 µM

Question: And the TGI (A549 NSCLC)?
Answer: 11.3 µM

Question: What about the GI50 (ACHN renal) of the same molecule?
Answer: 0.0673 µM

Question: And the TGI (ACHN renal)?
Answer: 8.77 µM

Question: What about the GI50 (BT-549 breast) of the same molecule?
Answer: < 0.01 µM

Question: What about the TGI (BT-549 breast) of the same molecule?
Answer: 0.0238 µM

Question: What about the GI50 (CAKI-1 renal) of the same molecule?
Answer: < 0.01 µM

Question: And the TGI (CAKI-1 renal)?
Answer: 18.9 µM

Question: And the GI50 (COLO 205 colon)?
Answer: < 0.01 µM

Question: And the TGI (COLO 205 colon)?
Answer: 1.98 µM

Question: What about the GI50 (DU-145 prostate) of the same molecule?
Answer: 0.119 µM

Question: What about the TGI (DU-145 prostate) of the same molecule?
Answer: 0.514 µM

Question: What about the GI50 (EKVX NSCLC) of the same molecule?
Answer: 0.184 µM

Question: What about the TGI (EKVX NSCLC) of the same molecule?
Answer: 9.92 µM

Question: And the GI50 (HCC-2998 colon)?
Answer: 0.0335 µM

Question: And the TGI (HCC-2998 colon)?
Answer: 0.334 µM

Question: What about the GI50 (HCT-116 colon) of the same molecule?
Answer: < 0.01 µM

Question: What about the TGI (HCT-116 colon) of the same molecule?
Answer: 0.35 µM

Question: And the GI50 (HCT-15 colon)?
Answer: 0.0344 µM

Question: What about the TGI (HCT-15 colon) of the same molecule?
Answer: 0.493 µM

Question: And the GI50 (HL-60(TB) leukemia)?
Answer: < 0.01 µM

Question: What about the TGI (HL-60(TB) leukemia) of the same molecule?
Answer: 0.0544 µM

Question: And the GI50 (HOP-62 NSCLC)?
Answer: 0.0318 µM

Question: What about the TGI (HOP-62 NSCLC) of the same molecule?
Answer: 0.231 µM

Question: And the GI50 (HOP-92 NSCLC)?
Answer: 0.13 µM

Question: And the TGI (HOP-92 NSCLC)?
Answer: 11 µM

Question: And the GI50 (HS 578T breast)?
Answer: < 0.01 µM

Question: What about the TGI (HS 578T breast) of the same molecule?
Answer: 0.878 µM

Question: And the GI50 (HT29 colon)?
Answer: < 0.01 µM

Question: What about the TGI (HT29 colon) of the same molecule?
Answer: 0.719 µM

Question: And the GI50 (IGROV1 ovarian)?
Answer: 0.104 µM

Question: And the TGI (IGROV1 ovarian)?
Answer: 2.89 µM

Question: What about the GI50 (KM12 colon) of the same molecule?
Answer: 0.139 µM

Question: And the TGI (KM12 colon)?
Answer: 3.05 µM

Question: And the GI50 (LOX IMVI melanoma)?
Answer: 0.0423 µM

Question: And the TGI (LOX IMVI melanoma)?
Answer: 0.206 µM

Question: What about the GI50 (M14 melanoma) of the same molecule?
Answer: 0.108 µM

Question: And the TGI (M14 melanoma)?
Answer: 0.348 µM

Question: What about the GI50 (MALME-3M melanoma) of the same molecule?
Answer: 0.123 µM

Question: What about the TGI (MALME-3M melanoma) of the same molecule?
Answer: 0.425 µM

Question: What about the GI50 (MCF7 breast) of the same molecule?
Answer: 0.0191 µM

Question: And the TGI (MCF7 breast)?
Answer: > 100 µM

Question: What about the GI50 (MDA-MB-231 breast) of the same molecule?
Answer: < 0.01 µM

Question: What about the TGI (MDA-MB-231 breast) of the same molecule?
Answer: 0.142 µM

Question: What about the GI50 (MDA-MB-435 melanoma) of the same molecule?
Answer: 0.0207 µM

Question: And the TGI (MDA-MB-435 melanoma)?
Answer: 0.0825 µM

Question: And the GI50 (MDA-MB-468 breast)?
Answer: 0.154 µM

Question: What about the TGI (MDA-MB-468 breast) of the same molecule?
Answer: 0.381 µM

Question: What about the GI50 (MOLT-4 leukemia) of the same molecule?
Answer: < 0.01 µM

Question: What about the TGI (MOLT-4 leukemia) of the same molecule?
Answer: < 0.01 µM

Question: What about the GI50 (NCI-H226 lung) of the same molecule?
Answer: < 0.01 µM

Question: And the TGI (NCI-H226 lung)?
Answer: 0.017 µM

Question: And the GI50 (NCI-H23 lung)?
Answer: < 0.01 µM

Question: And the TGI (NCI-H23 lung)?
Answer: 1.95 µM

Question: And the GI50 (NCI-H322M lung)?
Answer: 0.0506 µM

Question: And the TGI (NCI-H322M lung)?
Answer: 2.58 µM

Question: And the GI50 (NCI-H460 NSCLC)?
Answer: < 0.01 µM

Question: What about the TGI (NCI-H460 NSCLC) of the same molecule?
Answer: 0.0795 µM

Question: What about the GI50 (NCI-H522 lung) of the same molecule?
Answer: < 0.01 µM

Question: And the TGI (NCI-H522 lung)?
Answer: 0.118 µM

Question: What about the GI50 (NCI/ADR-RES ovarian) of the same molecule?
Answer: < 0.01 µM

Question: What about the TGI (NCI/ADR-RES ovarian) of the same molecule?
Answer: 1.33 µM

Question: And the GI50 (OVCAR-3 ovarian)?
Answer: < 0.01 µM

Question: And the TGI (OVCAR-3 ovarian)?
Answer: 0.0966 µM

Question: And the GI50 (OVCAR-4 ovarian)?
Answer: 0.179 µM

Question: What about the TGI (OVCAR-4 ovarian) of the same molecule?
Answer: 0.662 µM

Question: And the GI50 (OVCAR-5 ovarian)?
Answer: 0.0642 µM

Question: What about the TGI (OVCAR-5 ovarian) of the same molecule?
Answer: 0.588 µM

Question: And the GI50 (OVCAR-8 ovarian)?
Answer: < 0.01 µM

Question: What about the TGI (OVCAR-8 ovarian) of the same molecule?
Answer: 1.21 µM

Question: And the GI50 (PC-3 prostate)?
Answer: < 0.01 µM

Question: What about the TGI (PC-3 prostate) of the same molecule?
Answer: 0.0381 µM

Question: What about the GI50 (RPMI-8226 leukemia) of the same molecule?
Answer: < 0.01 µM

Question: What about the TGI (RPMI-8226 leukemia) of the same molecule?
Answer: < 0.01 µM

Question: What about the GI50 (RXF 393 renal) of the same molecule?
Answer: < 0.01 µM

Question: What about the TGI (RXF 393 renal) of the same molecule?
Answer: 0.706 µM

Question: And the GI50 (SF-268 CNS)?
Answer: < 0.01 µM

Question: What about the TGI (SF-268 CNS) of the same molecule?
Answer: 0.558 µM

Question: And the GI50 (SF-295 CNS)?
Answer: 0.0169 µM

Question: And the TGI (SF-295 CNS)?
Answer: 2.3 µM

Question: What about the GI50 (SF-539 CNS) of the same molecule?
Answer: < 0.01 µM

Question: What about the TGI (SF-539 CNS) of the same molecule?
Answer: 0.0112 µM

Question: And the GI50 (SK-MEL-28 melanoma)?
Answer: 0.0338 µM

Question: What about the TGI (SK-MEL-28 melanoma) of the same molecule?
Answer: 0.386 µM

Question: And the GI50 (SK-MEL-5 melanoma)?
Answer: 0.0736 µM

Question: What about the TGI (SK-MEL-5 melanoma) of the same molecule?
Answer: 0.252 µM

Question: What about the GI50 (SK-OV-3 ovarian) of the same molecule?
Answer: < 0.01 µM

Question: What about the TGI (SK-OV-3 ovarian) of the same molecule?
Answer: 12.5 µM

Question: What about the GI50 (SN12C renal) of the same molecule?
Answer: 0.194 µM

Question: What about the TGI (SN12C renal) of the same molecule?
Answer: 1.51 µM

Question: And the GI50 (SNB-19 CNS)?
Answer: 0.0583 µM

Question: What about the TGI (SNB-19 CNS) of the same molecule?
Answer: 1.13 µM

Question: What about the GI50 (SNB-75 CNS) of the same molecule?
Answer: < 0.01 µM

Question: What about the TGI (SNB-75 CNS) of the same molecule?
Answer: 0.113 µM

Question: What about the GI50 (SR leukemia) of the same molecule?
Answer: < 0.01 µM

Question: What about the TGI (SR leukemia) of the same molecule?
Answer: < 0.01 µM

Question: What about the GI50 (T-47D breast) of the same molecule?
Answer: 0.19 µM

Question: What about the TGI (T-47D breast) of the same molecule?
Answer: 6.28 µM

Question: And the GI50 (TK-10 renal)?
Answer: 0.0164 µM

Question: And the TGI (TK-10 renal)?
Answer: 0.143 µM

Question: And the GI50 (U251 glioblastoma)?
Answer: 0.0195 µM

Question: And the TGI (U251 glioblastoma)?
Answer: 0.19 µM

Question: And the GI50 (UACC-257 melanoma)?
Answer: 0.239 µM

Question: What about the TGI (UACC-257 melanoma) of the same molecule?
Answer: 2.47 µM

Question: What about the GI50 (UACC-62 melanoma) of the same molecule?
Answer: 0.0125 µM

Question: And the TGI (UACC-62 melanoma)?
Answer: 0.242 µM
